In ChEMBL document CHEMBL2021779, “Inhibition of hepatitis C virus NS5A by fluoro-olefin based γ-turn mimetics” (Bioorg Med Chem Lett, 2012):
pEC50: −log10 of the molar value.

Experiments:
Hepatitis C virus [1] = assay: Antiviral activity against Hepatitis C virus genotype 1B by whole cell replicon assay; assay type: functional, organism-based, Hepacivirus hominis
[2] = tested on: Hepatitis C virus subtype 1a; assay: Antiviral activity against Hepatitis C virus genotype 1A by whole cell replicon assay
Hepatitis C virus [3] = assay: Antiviral activity against Hepatitis C virus genotype 2A by whole cell replicon assay; assay type: functional, organism-based, Hepacivirus hominis

Row | pEC50 (Hepatitis C virus [1]) | pEC50 [2] | pEC50 (Hepatitis C virus [3]) | SMILES
1 | 7.56 | 6.18 | 6.40 | COC(=O)N[C@H](/C(F)=C(\C)[C@@H](C)c1ncc(-c2ccc(-c3ccc(-c4cnc([C@H](C)/C(C)=C(\F)[C@@H](NC(=O)OC)C(C)C)[nH]4)cc3)cc2)[nH]1)C(C)C
2 | 10.10 | 6.72 | 6.78 | COC(=O)N[C@H](/C(F)=C1\CCC[C@H]1c1ncc(-c2ccc(-c3ccc(-c4cnc([C@@H]5CCC/C5=C(/F)[C@@H](NC(=O)OC)C(C)C)[nH]4)cc3)cc2)[nH]1)C(C)C

Row | SMILES | pEC50 (Hepatitis C virus [1]) | pEC50 [2] | pEC50 (Hepatitis C virus [3])
3 | COC(=O)N[C@H](C(=O)N1CCC[C@H]1c1ncc(-c2ccc(-c3ccc(-c4cnc([C@@H]5CCCN5C(=O)[C@@H](NC(=O)OC)C(C)C)[nH]4)cc3)cc2)[nH]1)C(C)C | […] | – | 10.20
